Source: patent publication US20140120087A1, “TRIAZOLOPYRIDINES” (BAYER INTELLECTUAL PROPERTY GMBH, priority 2011, published 2014)

Assays:
Mps-1 kinase [1] = target: T1, Mps-1 kinase (Homo sapiens, UniProt P33981); assay: Mps-1 kinase assay with 2 mM ATP (TR-FRET)
T1 sequence (P33981 1-857): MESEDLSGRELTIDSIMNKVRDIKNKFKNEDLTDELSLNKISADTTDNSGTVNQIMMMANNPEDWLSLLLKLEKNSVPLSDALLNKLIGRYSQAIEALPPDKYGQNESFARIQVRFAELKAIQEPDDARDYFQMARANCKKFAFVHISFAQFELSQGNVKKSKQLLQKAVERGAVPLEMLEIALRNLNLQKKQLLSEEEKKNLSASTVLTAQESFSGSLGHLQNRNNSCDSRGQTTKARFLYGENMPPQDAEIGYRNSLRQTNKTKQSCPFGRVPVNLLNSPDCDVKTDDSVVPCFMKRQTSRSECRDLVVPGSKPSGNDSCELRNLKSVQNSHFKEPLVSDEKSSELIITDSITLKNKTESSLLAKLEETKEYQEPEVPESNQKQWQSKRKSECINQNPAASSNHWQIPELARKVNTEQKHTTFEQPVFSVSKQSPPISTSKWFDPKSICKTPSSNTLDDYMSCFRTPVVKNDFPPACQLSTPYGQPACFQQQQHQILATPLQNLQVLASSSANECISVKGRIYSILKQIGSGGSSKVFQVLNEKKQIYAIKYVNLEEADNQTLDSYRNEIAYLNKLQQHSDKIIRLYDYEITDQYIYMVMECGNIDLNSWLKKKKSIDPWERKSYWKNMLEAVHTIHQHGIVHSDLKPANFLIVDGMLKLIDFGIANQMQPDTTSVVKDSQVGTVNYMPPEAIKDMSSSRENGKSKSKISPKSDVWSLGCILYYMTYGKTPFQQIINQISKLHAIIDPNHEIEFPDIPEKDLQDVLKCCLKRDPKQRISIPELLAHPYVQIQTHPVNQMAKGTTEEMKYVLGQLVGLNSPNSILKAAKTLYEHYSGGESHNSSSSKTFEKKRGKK

[2] = Hydrolytic stability assay at pH 2; type: physicochemical; conditions: buffer pH 2, 37° C., compounds of the invention
Procedure: The hydrolytic stability assay investigates the stability of a compound in an aqueous buffer system. Standard solution stability assay is run in 0.05 M Phosphate buffer at pH 7.4 (pH of blood plasma) at 37° C. As compounds in the GI tract are exposed to a wide variety of pHs any relevant pH (as pH 2 to simulate the acidic condition of the GI tract in the following experiment) can be chosen. Compounds are incubated in relevant solution at 37° C. and analyzed by HPLC immediately after incubation and after 1, 2 and 24 hrs. Degradation rate (decay in %) is calculated by relating peak areas after 1, 2 and 24 hrs to the time zero injection.
Compound is available as 10 mM in DMSO (solution 1). 2.5 μL of solution 1 is dissolved in 1 mL acetonitrile leading to solution 2. Poorly soluble compounds may demand another dilution step of solution 2 (1:5 and 1:10 respectively) in Acetonitrile). Solution 2 is incubated at 37° C. in a tempered HPLC autosampler. 1 mL buffer pH 2 is transferred into an HPLC vial. 100 μL of solution 2 is added to the buffer pH 2 solution and mixed thoroughly. Immediately after mixing the combined solution is injected into the HPLC to give the time zero injection. Injections are repeated after 1, 2 and 24 hrs.
The degradation rate (decay in %) is calculated using HPLC software Millennium and Excel respectively.

Mps-1 kinase [3] = target: T1, Mps-1 kinase; assay: Mps-1 kinase assay with 10 μM ATP (TR-FRET)

IC50 (Mps-1 kinase [1]) [nM] | Hydrolysis at pH 2; Decay in % after 24 h [2] [%] | IC50 (Mps-1 kinase [3]) [nM] | Compound
1.2 | <10 | ≤ 1 | CCN(CC)C(=O)c1ccc(Nc2nc3ccc(-c4ccc(NC(=O)Cc5ccc(F)cc5)cc4)cn3n2)c(OCC2CC2)c1 [Example 01.24, 3-(cyclopropylmethoxy)-N,N-diethyl-4-{[6-(4-{[(4-fluorophenyl)acetyl]-amino}phenyl)[1,2,4]triazolo[1,5-α]pyridin-2-yl]amino}benzamide]
1.3 | <10 | ≤ 1 | CCN(CC)C(=O)c1ccc(Nc2nc3ccc(-c4ccc(NC(=O)Cc5ccc(F)cc5)cc4)cn3n2)c(OC(C)C)c1 [Example 01.25, N,N-diethyl-4-{[6-(4-{[(4-fluorophenyl)acetyl]amino}phenyl)[1,2,4]triazolo-[1,5-α]pyridin-2-yl]amino}-3-isopropoxybenzamide]
21 | <10 | ≤ 1 | CCN(CC)C(=O)c1ccc(Nc2nc3ccc(-c4ccc(NC(=O)Cc5ccc(F)cc5)cc4)cn3n2)c(OCCOC)c1 [Example 01.26, N,N-diethyl-4-{[6-(4-{[(4-fluorophenyl)acetyl]amino}phenyl)[1,2,4]triazolo-[1,5-α]pyridin-2-yl]amino}-3-(2-methoxyethoxy)benzamide]
≤ 1 | <10 | ≤ 1 | O=C(Cc1ccc(F)cc1)Nc1ccc(-c2ccc3nc(Nc4ccc(C(=O)NCC(F)(F)F)cc4OCC(F)(F)F)nn3c2)cc1 [Example 01.27, 4-{[6-(4-{[(4-fluorophenyl)acetyl]amino}phenyl)[1,2,4]triazolo[1,5-α]-pyridin-2-yl]amino}-3-(2,2,2-trifluoroethoxy)-N-(2,2,2-trifluoroethyl)-benzamide]
≤ 1 | <10 | ≤ 1 | CCOc1cc(C(=O)NCCS(C)(=O)=O)ccc1Nc1nc2ccc(-c3ccc(NC(=O)Cc4ccc(F)cc4)cc3)cn2n1 [Example 01.28, 3-ethoxy-4-{[6-(4-{[(4-fluorophenyl)acetyl]amino}phenyl)[1,2,4]triazolo-[1,5-α]pyridin-2-yl]amino}-N-[2-(methylsulfonyl)ethyl]benzamide]
≤ 1 | <10 | ≤ 1 | CC(C)(O)CNC(=O)c1ccc(Nc2nc3ccc(-c4ccc(NC(=O)Cc5ccc(F)cc5)cc4)cn3n2)c(OCC(F)(F)F)c1 [Example 01.29, 4-{[6-(4-{[(4-fluorophenyl)acetyl]amino}phenyl)[1,2,4]triazolo[1,5-α]-pyridin-2-yl]amino}-N-(2-hydroxy-2-methylpropyl)-3-(2,2,2-trifluoro-ethoxy)benzamide]
1.1 | <10 | ≤ 1 | COc1cc(C(=O)NCCO)ccc1Nc1nc2ccc(-c3ccc(C(=O)NCc4ccc(F)cc4)cc3)cn2n1 [Example 02.1, 4-[(6-{4-[(4-fluorobenzyl)carbamoyl]phenyl}[1,2,4]triazolo[1,5-α]pyridin-2-yl)amino]-N-(2-hydroxyethyl)-3-methoxybenzamide]
≤ 1 | <10 | ≤ 1 | CCOc1cc(C(=O)NCCO)ccc1Nc1nc2ccc(-c3ccc(C(=O)NCc4ccc(F)cc4)cc3)cn2n1 [Example 02.2, 3-ethoxy-4-[(6-{4-[(4-fluorobenzyl)carbamoyl]phenyl}[1,2,4]triazolo[1,5-α]pyridin-2-yl)amino]-N-(2-hydroxyethyl)benzamide]
≤ 1 | <10 | ≤ 1 | CCOc1cc(C(=O)NC(C)(C)CO)ccc1Nc1nc2ccc(-c3ccc(C(=O)NCc4ccc(F)cc4)cc3)cn2n1 [Example 02.3, 3-ethoxy-4-[(6-{4-[(4-fluorobenzyl)carbamoyl]phenyl}[1,2,4]triazolo[1,5-α]pyridin-2-yl)amino]-N-(1-hydroxy-2-methylpropan-2-yl)benzamide]
≤ 1 | <10 | ≤ 1 | O=C(NCCO)c1ccc(Nc2nc3ccc(-c4ccc(C(=O)NCc5ccc(F)cc5)cc4)cn3n2)c(OCC(F)(F)F)c1 [Example 02.4, 4-[(6-{4-[(4-fluorobenzyl)carbamoyl]phenyl}[1,2,4]triazolo[1,5-α]pyridin-2-yl)amino]-N-(2-hydroxyethyl)-3-(2,2,2-trifluoroethoxy)benzamide]
1.8 | <10 | ≤ 1 | COc1cc(C(=O)NCC(C)(C)O)ccc1Nc1nc2ccc(-c3ccc(C(=O)NCc4ccc(F)cc4)cc3)cn2n1 [Example 02.5, 4-[(6-{4-[(4-fluorobenzyl)carbamoyl]phenyl}[1,2,4]triazolo[1,5-α]pyridin-2-yl)amino]-N-(2-hydroxy-2-methylpropyl)-3-methoxybenzamide]
4.3 | <10 | ≤ 1 | COc1cc(S(C)(=O)=O)ccc1Nc1nc2ccc(-c3ccc(C(=O)NCc4ccc(F)cc4)cc3)cn2n1 [Example 02.6, N-(4-fluorobenzyl)-4-(2-{[2-methoxy-4-(methylsulfonyl)phenyl]amino}-[1,2,4]triazolo[1,5-α]pyridin-6-yl)benzamide]
≤ 1 | <10 | ≤ 1 | CCOc1cc(C(=O)NCC(C)(C)O)ccc1Nc1nc2ccc(-c3ccc(C(=O)NCc4ccc(F)cc4)cc3)cn2n1 [Example 02.7, 3-ethoxy-4-[(6-{4-[(4-fluorobenzyl)carbamoyl]phenyl}[1,2,4]triazolo[1,5-α]pyridin-2-yl)amino]-N-(2-hydroxy-2-methylpropyl)benzamide]
1.5 | <10 | ≤ 1 | COc1cc(C(=O)NC(C)(C)CO)ccc1Nc1nc2ccc(-c3ccc(C(=O)NCc4ccc(F)cc4)cc3)cn2n1 [Example 02.8, 4-[(6-{4-[(4-fluorobenzyl)carbamoyl]phenyl}[1,2,4]triazolo[1,5-α]pyridin-2-yl)amino]-N-(1-hydroxy-2-methylpropan-2-yl)-3-methoxybenzamide]
2.2 | <10 | ≤ 1 | COc1cc(C(=O)N(C)CCN(C)C(C)=O)ccc1Nc1nc2ccc(-c3ccc(C(=O)NCc4ccc(F)cc4)cc3)cn2n1 [Example 02.9, N-{2-[acetyl(methyl)amino]ethyl}-4-[(6-{4-[(4-fluorobenzyl)carbamoyl]-phenyl}[1,2,4]triazolo[1,5-α]pyridin-2-yl)amino]-3-methoxy-N-methylbenzamide]
2.3 | <10 | ≤ 1 | CCOCCNC(=O)c1ccc(Nc2nc3ccc(-c4ccc(C(=O)NCc5ccc(F)cc5)cc4)cn3n2)c(OC)c1 [Example 02.10, N-(2-ethoxyethyl)-4-[(6-{4-[(4-fluorobenzyl)carbamoyl]phenyl}[1,2,4]-triazolo[1,5-α]pyridin-2-yl)amino]-3-methoxybenzamide]
≤ 1 | <10 | ≤ 1 | CNCCN(C)C(=O)c1ccc(Nc2nc3ccc(-c4ccc(C(=O)NCc5ccc(F)cc5)cc4)cn3n2)c(OC)c1 [Example 02.11, 4-[(6-{4-[(4-fluorobenzyl)carbamoyl]phenyl}[1,2,4]triazolo[1,5-α]pyridin-2-yl)amino]-3-methoxy-N-methyl-N-[2-(methylamino)ethyl]benzamide]
≤ 1 | <10 | ≤ 1 | CCOc1cc(C(=O)N(C)CCO)ccc1Nc1nc2ccc(-c3ccc(C(=O)NCc4ccc(F)cc4)cc3)cn2n1 [Example 02.12, 3-ethoxy-4-[(6-{4-[(4-fluorobenzyl)carbamoyl]phenyl}[1,2,4]triazolo[1,5-α]pyridin-2-yl)amino]-N-(2-hydroxyethyl)-N-methylbenzamide]
